According to ChEMBL document CHEMBL1135808, “A new type of mixed anhydride and its applications to the synthesis of 7-substituted 8-chloro-5,5-dioxoimidazo[1,2-b][1,4,2]benzodithiazines with in vitro antitumor activity” (2002):

Assays:
Type in all cases: functional
Conditions in all cases: Homo sapiens, read-out: Log LC50 (the source's name) (converted)
K562 = experiment: Log of molar concentration leading to 50% cell death against leukemia K-562 cell line was reported
MDA-MB-435 = experiment: (§1) Log of molar concentration leading to 50% cell death against breast cancer MDA-MB-435 cell line was reported
ACHN = experiment: Log of molar concentration leading to 50% cell death against renal cancer ACHN cell line was reported
[1] = as §1

Structure (SMILES)	CC50 (K562)	CC50 (MDA-MB-435)	CC50 (ACHN)	CC50 [1]
O=C(Nc1nccs1)c1cc2c(cc1Cl)Sc1nccn1S2(=O)=O	87.1 µM	57.5 µM	58.9 µM	–
Cc1ccc2cccc(NC(=O)c3cc4c(cc3Cl)Sc3nccn3S4(=O)=O)c2n1	–	–	–	55 µM
